Test results reported in patent publication US20140199265A1, “NUTRITIONAL COMPOSITIONS CONTAINING A NEUROLOGIC COMPONENT AND USES THEREOF” (MEAD JOHNSON NUTRITION COMPANY, priority 2013, published 2014).

Columns and labels:
[1] = system: human adipose-derived stem cells (hADSCs); assay: neurogenesis / neuronal differentiation of hADSCs judged by neuronal morphology under phase contrast microscopy; type: cell-based
Description: hADSCs were purchased from Invitrogen, also known as Life Technologies, of Carlsbad, Calif., U.S.A., and were cultured as near confluent monolayers in 100 mm culture plates within a maintenance media consisting of Complete MesenPro RS medium with growth supplement and L-glutamine obtained from Invitrogen®. The process of culturing, passage, and seeding the hADSCs is described below.
The subculture of hADSCs was performed when cell culture reached confluence. To passage hADSCs, the following procedure is used: i) aspirate the Complete MesenPRO RS medium from the cells; ii) rinse the surface area of the cell layer with Dulbecco's phosphate buffered saline (DBPS) buffer by adding the DPBS to the side of the vessel opposite the attached cell layer and rocking the vessel back and forth several times; iii) remove the DPBS by aspiration and discard; iv) detach the cells by adding a sufficient volume of pre-warmed trypsin-EDTA solution without phenol red to cover the cell layer; v) incubate at 37° C. for approximately 7 minutes; vi) observe the cells under a microscope to determine if additional incubation is needed; vii) add 3 mL of the maintenance media to the plate, mix the cell suspension, add the suspension to a 15 mL centrifuge tube and centrifuge at 210 g for 5 minutes; viii) determine the total number of cells and percent viability using a hemacytometer; ix) add Complete MesenPRO RS medium to each vessel so that the final culture volume is 0.2 mL-0.5 mL per cm^2; x) seed the cells by adding the appropriate volume of cells to each vessel and incubate at 37° C., 5% CO2 and 90% humidity; and xi) three or four days after seeding, completely remove the medium and replace with an equal volume of Complete MesenPRO RS medium.
Before seeding the passaged hADSCs on fresh culture plates, the surfaces of the culture ware are washed with sterile DPBS solution three times, followed by multiple rinses with sterile water. The first layer of coating is poly-L-ornithine. The coating is prepared by adding about 15 to about 20 μg/mL of poly-L-ornithine and incubating at 37° C. for one hour. The plate is washed three times with DPBS, 15 minutes per wash. The second layer of coating is bovine plasma fibronectin. The fibronectin is diluted in DPBS from stock to 1:1000 and 500 μL is added to each well. The plate is left at room temperature for one hour. One final wash with 500 μL per well of DPBS is performed and the plate is used immediately.
The cells were then subjected to removal and reseeded at a density of 2×10^4 cells/ml (1×10^4 cells/well) onto 24-well culture plates that contained a poly-L-ornithine and bovine plasma fibronectin coating.
Three days after seeding and priming; the culture medium was changed into neuronal differentiation medium. The culture plates were removed from the incubator and all procedures were conducted in a laminar flow hood. The culture medium was completely removed from each well. The hADSCs were then washed with sterile DPBS solution in an amount of about 1 ml per well, to remove excess culture medium. The DPBS solution was removed and replaced with neuronal differentiation medium. The formulation of the neuronal differentiation medium is such that neurogenesis would be attributed to the nutrient and not to the medium. The neuronal differentiation medium used was Neurobasal™ Medium, available from Invitrogen®, which comprises the following ingredients listed below in Table 1.
PE was added to individual wells at various concentrations in the serum-free medium. Pre-warmed serum-free medium contains Neural Basal medium with L-glutamine, 20 ng/mL of bFGF, 20 ng/mL of EGF and N2 supplement.
[…] PE in varying concentrations was tested individually and compared to the positive control, DHA, and the negative control (no treatment) under phase contrast microscopy at 24 hours, 48 hours and 96 hours. The experiments were repeated in triplicate. […]

[2] = system: human neuronal stem cells (hNSCs); assay: neurogenesis of GFP-expressing hNSCs judged by morphological changes under inverted fluorescent microscopy; type: cell-based
Description: Briefly, hNSCs were purchased from Millipore, Bellerica, Mass., U.S.A., with genetic modification to constitutively express green fluorescent protein (“GFP”). The hNSCs were cultured on laminin coated plates as recommended by the manufacturer. Both laminin and DEME/F12 were obtained from Millipore. Laminin was diluted with DMEM/F12 to 20 μg/mL. 10 ml of diluted laminin solution was added to 10 cm tissue culture dish. Then the culture dish was incubated in a 37° C., 5% CO2 incubator overnight. Just before use, the laminin solution was aspirated and rinsed once with sterile DPBS solution. hNSCs were cultured in the ReNcell NSC maintenance medium (Millipore) supplied with 20 ng/mL bFGF and 20 ng/mL EGF in a 37° C., 5% CO2 incubator. Medium was exchanged with fresh medium containing bFGF and EGF every other day thereafter.
After hNSCs reach 80% confluence, hNSCs were ready for the differentiation experiment. Before seeding, a 96-well plate was freshly coated with 20 μg/mL laminin solution followed by a brief DPBS rinse as described above. Culture medium was removed carefully and hNSCs were dissociated within 3 ml Accutase (Millipore) in a 37° C., 5% CO2 incubator for 3 minutes. Then 5 ml of ReNcell NSC maintenance medium (Millipore) supplied with 20 ng/mL bFGF and 20 ng/mL EGF were added. The cell suspension was then transferred a sterile 15 ml conical tube and the cells were pelleted by the centrifugation at 300×g for 5 minutes. Supernatant was removed. 2 ml medium was then applied to the tube and hNSCs was resuspended thoroughly. The hNSCs were seeded on a 96-well plate at a density of 1×10^4 cell/ml (1000 cells/well, 100 μl/well).
After attaching to the culture surface, the culture medium was switched to serum-free differentiation medium in the presence of CDP-choline, or DHA, or no treatment. The serum-free differentiation medium was prepared freshly before the switching including 40 ml DMEM/F12 (Millipore), 400 μL-Glutamine at a concentration of 200 mM (Life Technologies, Carlsbad, Calif.), 400 μl B27 solution (Life Technologies, Carlsbad, Calif.), and 40 μl Heperin (Sigma-Aldrich, St. Louis, […].) solution at a concentration of 10 mg/mL.
The entire 96-well plate was placed under the Leica DMI4000B fluorescent microscopy, and images were taken with GFP filter under a microscope with UV light source.

[3] = CDP-choline of 404 (so in the source), after 72 hours

Question: With `C[N+](C)(C)CCOP(=O)(O)OP(=O)([O-])OC[C@H]1O[C@@H](n2ccc(N)nc2=O)[C@H](O)[C@@H]1O` [CDP-choline, cytidine diphosphate-choline] as the molecule, how does the “effect to enhance neurogenesis (neurite outgrowth, morphological changes)” value ([1]; 5 μM, FIG. 4C) read?
Answer: The value was “demonstrated an effect to enhance neurogenesis”.

Question: And the “length of neurite outgrowth” value [2, 3]?
Answer: Its value is “comparable to DHA at 20 μM”.

Question: And the “neurogenesis compared to no treatment” value [2, 3]?
Answer: The value was “dramatically promoted neurogenesis”.

Question: Which neurogenesis ([2]; 10 μM, FIG. 5E) does the source give for `CCCCCCCCCCCCC/C=C/[C@@H](O)[C@@H](CO)NC(=O)CCCCCCC` [N-octanoyl-D-threo-sphingosine] here?
Answer: Its neurogenesis is “dramatically promoted neurogenesis”.

Question: With `CCCCCCCCCCCCC/C=C/[C@@H](O)[C@H](CO)NC(=O)C(O)CCCCCCCCCC` (stereo partly drawn) [N—(R,S)-alpha-Hydroxydodecanoyl-D-erythrosphingosine] as the molecule, how does the early neurogenesis ([1]; 40 μM, 24 hours after treating, FIG. 5B) read?
Answer: Its early neurogenesis is “Early neurogenesis was also, observed”.

Question: What about the “effects to promote neurogenesis compared with DHA” value ([1]; tested at 20 and 40 μM vs DHA 10 μM, 24 hours) of the same molecule?
Answer: Its value is “moderate effects to promote neurogenesis”.

Question: And the “neuronal changes in terms of morphology” value ([1]; tested at 20 and 40 μM, 24 hours)?
Answer: The value was “obvious neuronal changes in terms of morphology”.

Question: For `O=c1ccn([C@@H]2O[C@H](CO)[C@@H](O)[C@H]2O)c(=O)[nH]1` [uridine], which early neurogenesis ([1]; 20 μM, three hours after switching to neural differentiation medium, FIG. 6B) is on record?
Answer: The early neurogenesis was “Early neurogenesis was observed”.

Question: And the “duration of neuronal morphological changes” value ([1]; 0.5 mM)?
Answer: Its value is “continued up to the 48-hour time course of the culture”.

Question: And the “effect to enhance early neurogenesis” value ([1]; 0.5 mM)?
Answer: Its value is “demonstrated the strongest effect to enhance early neurogenesis”.

Question: And the “length of neurite outgrowth” value ([2]; 20 μM)?
Answer: The value was “good effects of neurogenesis”.

Question: And the neurogenesis ([2]; 20 μM, FIG. 6C)?
Answer: The neurogenesis was “dramatically promoted neurogenesis”.

Question: For lactosylceramide, which neurogenesis action ([1]; 10 μM, FIG. 5D) is on record?
Answer: Its neurogenesis action is “exhibit neurogenesis action”.

Question: phosphatidylethanolamine [PE] was tested. Which “effect to enhance neurogenesis (neuronal morphology)” value ([1]; 20 μM, among 10, 20 and 40 μM tested, FIGS. 2C, 2D) did it give?
Answer: Its value is “demonstrated the strongest effect to enhance neurogenesis”.

Question: What does the source list for sphingomyelin?
Answer: neural differentiation ([1]; 40 μM): enhanced neural differentiation of hADSCs; extensions compared to negative control ([1]; even at low concentrations (10-40 μM tested)): longer than negative control and much more numerous
